Measured values published in US20100120063A1, “GPCR Arrestin Assays” (DISCOVERX CORPORATION, priority 2008, published 2010).

Columns and labels:
Format in all cases: cell-based
OPRM1-PK = molecular target: T1, OPRM1-PK (Homo sapiens, UniProt P35372); assay: Arrestin-EA EFC agonist assay, U2OS cells expressing OPRM1-PK only
T1 construct: PK (beta-galactosidase ED); expressed in transfected cells; host or cells: U2OS
Protocol: (§2) For all assays, 10,000 cells per well were seeded in 20 μL media and incubated overnight in 1% Fetal Bovine Serum and appropriate basal media (F-12 or DMEM). For agonist assays, 5 μL compound was added to cells and incubated at Room Temp. […] Arrestin-EA complex formation with the GPCR was detected with 50% (v/v) of PathHunter Detection Reagent (Dx 93-0001, PathHunter reagents are available from DiscoveRx, Corp., Fremont, Calif.) (Lysis buffer active ingredient 2% CHAPS, Emerald II and Galacton star are from Applied Biosystems.) Data was read on Packard Victor 2 or PerkinElmer ViewLux readers and analyzed using GraphPad Prism 4.

OPRD1-PK and OPRM1 = molecular target: T2, OPRD1-PK and OPRM1 (Homo sapiens, UniProt P35372); assay: Transactivation assay, CHO cells co-expressing OPRD1-PK and OPRM1 (FIG. 12C)
T2 construct: expressed in transfected cells; host or cells: CHO
Protocol: as §2

OPRD1-PK = molecular target: T3, OPRD1-PK (Homo sapiens, UniProt P41143); assay: Arrestin-EA EFC agonist assay, CHO cells expressing OPRD1-PK (FIG. 12A)
T3 construct: cloning junction ISFEL + gly-ser linker […]; PK1 (mutated ED, H to R); expressed in transfected cells; host or cells: CHO
Protocol: as §2

CCKAR-PK [1] = molecular target: T4, CCKAR-PK (Homo sapiens, UniProt P32238); assay: Calcium concentration in HEK cell line expressing CCKAR-PK and arrestin-EA (FIG. 10A, 10C)
T4 construct: PK (beta-galactosidase ED); expressed in transfected cells; host or cells: HEK
T4 sequence (P32238 1-428): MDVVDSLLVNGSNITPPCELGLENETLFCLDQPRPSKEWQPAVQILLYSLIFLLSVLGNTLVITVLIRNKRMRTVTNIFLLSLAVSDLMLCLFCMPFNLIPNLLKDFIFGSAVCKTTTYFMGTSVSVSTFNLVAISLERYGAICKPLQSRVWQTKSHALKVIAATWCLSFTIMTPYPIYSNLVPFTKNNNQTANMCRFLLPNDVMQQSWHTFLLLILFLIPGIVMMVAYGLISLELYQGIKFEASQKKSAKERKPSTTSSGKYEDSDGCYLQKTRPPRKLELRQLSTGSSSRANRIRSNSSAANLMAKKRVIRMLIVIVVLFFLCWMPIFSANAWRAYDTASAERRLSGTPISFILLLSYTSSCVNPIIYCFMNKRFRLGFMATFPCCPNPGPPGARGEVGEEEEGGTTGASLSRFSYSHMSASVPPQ

CCKAR-PK [2] = molecular target: T4, CCKAR-PK; assay: Arrestin-EA binding to CCKAR-PK in HEK cell line (FIG. 10B, 10D)
Protocol: (§3) For all assays, 10,000 cells per well were seeded in 20 μL media and incubated overnight in 1% Fetal Bovine Serum and appropriate basal media (F-12 or DMEM). For agonist assays, 5 μL compound was added to cells and incubated at Room Temp. For antagonist assays, 5 μL 5× compound was added to cells and incubated at 37° C./5% CO2 for 10 minutes, after which 5 μL 6× agonist was added and incubated for 60 minutes at 37° C. Arrestin-EA complex formation with the GPCR was detected with 50% (v/v) of PathHunter Detection Reagent (Dx 93-0001, PathHunter reagents are available from DiscoveRx, Corp., Fremont, Calif.) (Lysis buffer active ingredient 2% CHAPS, Emerald II and Galacton star are from Applied Biosystems.) Data was read on Packard Victor 2 or PerkinElmer ViewLux readers and analyzed using GraphPad Prism 4.

CHRM2 [3] = molecular target: T5, CHRM2 (Homo sapiens, UniProt P08172); assay: Arrestin-EA / GPCR-PK β-galactosidase EFC screening assay, CHRM2 fused to mutated ED (PK1)
T5 construct: gly-ser flexible linker […]; expressed in transfected cells; host or cells: CHO
T5 sequence (P08172 1-466): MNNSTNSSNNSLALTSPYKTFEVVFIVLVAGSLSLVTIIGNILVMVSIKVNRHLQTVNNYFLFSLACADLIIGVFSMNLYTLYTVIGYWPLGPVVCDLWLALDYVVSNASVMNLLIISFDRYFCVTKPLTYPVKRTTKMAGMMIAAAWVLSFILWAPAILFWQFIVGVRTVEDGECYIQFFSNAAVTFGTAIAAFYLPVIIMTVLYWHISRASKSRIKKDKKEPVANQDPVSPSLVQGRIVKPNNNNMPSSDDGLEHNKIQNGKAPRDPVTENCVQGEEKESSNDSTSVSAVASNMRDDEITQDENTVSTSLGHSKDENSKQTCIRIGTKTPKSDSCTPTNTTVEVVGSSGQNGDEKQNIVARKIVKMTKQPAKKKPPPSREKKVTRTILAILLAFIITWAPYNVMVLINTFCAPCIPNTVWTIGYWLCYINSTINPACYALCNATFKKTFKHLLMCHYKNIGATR
Protocol: (§1) To perform the screening assay, 20 μl of cells in complete media or serum-free media (OPTI-MEM® Invitrogen Cat. #31985-070) were plated at 5, 10 and 15×10^3 cells per well in a white 384 well microplate and incubated at 37° C. overnight. Cells are allowed to adhere and grown overnight. Cells may be screened for their response in serum free or complete medium. Serial dilutions are then performed in serum-free medium or buffer for a volume of 25 μl. Depending on the candidate compound, the dilution may occur in the presence of 0.1% BSA or ≦1% final concentration of an organic solvent, e.g., DMSO and methanol. 5 μl of each candidate compound is added per well. The assay mixture is then incubated for 90 min at 37° C. 12.5 μl of the detection reagent is then added. The detection reagent is prepared by combining 1 part Galacton Star Substrate® with 5 parts Emerald II® Solution and 19 parts Path-Hunter Cell Assay Buffer (lysis buffer). The assay mixture is then incubated for 1 h at room temperature. Chemiluminescence is then read at 1.0 sec/well on PMT based instrument or 5-20 sec on an imager.

CHRM2 [4] = molecular target: T5, CHRM2; assay: Arrestin-EA / GPCR-PK EFC screening assay, CHO Arrestin + CHRM2-PK2 (wild-type ED)
Protocol: as §1

OPRM1-PK and CCR2 = molecular target: T6, OPRM1-PK and CCR2 (Homo sapiens, UniProt P41597); assay: Transactivation assay, U2OS cells co-expressing OPRM1-PK and CCR2 (FIG. 13A); settings: CCR2 coexpressed with OPRM1-PK; FIG. 13 graph A
T6 construct: expressed in transfected cells; host or cells: U2OS
Protocol: as §2

OPRM1-PK and CCR5 = molecular target: T7, OPRM1-PK and CCR5 (Homo sapiens, UniProt P51681); assay: Transactivation assay, U2OS cells co-expressing OPRM1-PK and CCR5 (FIG. 13B); settings: CCR5 coexpressed with OPRM1-PK; FIG. 13 graph B
T7 construct: expressed in transfected cells; host or cells: U2OS
Protocol: as §3

[5] = curve fit, signal, U2OS OPRM1-PK only
[6] = curve fit, chemiluminescence signal, FIG. 4

T1 sequence (P35372 whole entry): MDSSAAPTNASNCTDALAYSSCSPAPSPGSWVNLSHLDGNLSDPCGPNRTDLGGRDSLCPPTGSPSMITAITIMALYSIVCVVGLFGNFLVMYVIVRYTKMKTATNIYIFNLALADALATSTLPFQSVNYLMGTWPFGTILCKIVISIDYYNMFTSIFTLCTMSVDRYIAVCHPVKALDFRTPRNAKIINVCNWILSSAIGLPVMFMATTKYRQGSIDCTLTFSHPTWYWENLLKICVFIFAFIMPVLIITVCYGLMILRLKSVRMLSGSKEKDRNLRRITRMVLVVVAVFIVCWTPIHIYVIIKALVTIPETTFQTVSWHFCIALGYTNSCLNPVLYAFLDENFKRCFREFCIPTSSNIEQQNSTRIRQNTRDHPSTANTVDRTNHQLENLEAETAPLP
T2 sequence (P35372 whole entry, species assumed): as the sequence (P35372 whole entry) above
T7 sequence (P51681 whole entry, species assumed): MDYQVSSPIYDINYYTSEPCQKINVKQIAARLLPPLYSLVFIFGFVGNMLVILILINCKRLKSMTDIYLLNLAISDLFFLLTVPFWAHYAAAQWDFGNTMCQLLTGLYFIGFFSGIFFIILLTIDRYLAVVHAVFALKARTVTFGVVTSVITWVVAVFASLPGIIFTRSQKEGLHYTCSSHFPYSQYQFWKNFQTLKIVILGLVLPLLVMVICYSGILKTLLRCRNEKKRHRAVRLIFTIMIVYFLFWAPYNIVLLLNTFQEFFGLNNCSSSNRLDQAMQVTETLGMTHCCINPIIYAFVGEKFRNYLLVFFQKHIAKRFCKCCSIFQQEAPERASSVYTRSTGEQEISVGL
T6 sequence (P41597 whole entry, species assumed): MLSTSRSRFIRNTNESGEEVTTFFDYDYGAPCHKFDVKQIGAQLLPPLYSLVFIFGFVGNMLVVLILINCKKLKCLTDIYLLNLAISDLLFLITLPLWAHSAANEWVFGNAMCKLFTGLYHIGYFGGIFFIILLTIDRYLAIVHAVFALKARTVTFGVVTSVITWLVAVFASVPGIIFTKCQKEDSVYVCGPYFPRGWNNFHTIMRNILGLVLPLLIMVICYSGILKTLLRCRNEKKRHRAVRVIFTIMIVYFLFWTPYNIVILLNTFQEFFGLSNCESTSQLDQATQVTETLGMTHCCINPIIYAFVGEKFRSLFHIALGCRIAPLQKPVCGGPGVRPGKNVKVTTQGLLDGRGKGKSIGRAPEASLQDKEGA

## CC(C)C[C@@H](NC(=O)[C@H](Cc1ccccc1)NC(=O)CNC(=O)[C@@H](C)NC(=O)[C@@H](N)Cc1ccc(O)cc1)C(=O)O [DADLE]
OPRM1-PK; U2OS OPRM1-PK only
  HILLSLOPE: 1.483
OPRM1-PK; [5]
  BOTTOM: 625.6
  TOP: 17070
OPRM1-PK; signal to background, U2OS OPRM1-PK only
  S:B: [S:B = 32.7]

## C[C@@H](NC(=O)[C@@H](N)Cc1ccc(O)cc1)C(=O)NCC(=O)N(C)[C@@H](Cc1ccccc1)C(=O)NCCO [DAMAGO, [D-Ala2,N-Me-Phe4,Gly5-ol]-enkephalin]
OPRM1-PK; U2OS OPRM1-PK only
  HILLSLOPE: 0.7069
OPRM1-PK; cells expressing only OPRM1-PK
  arrestin-EA binding response: presence of response
OPRM1-PK; [5]
  TOP: 10875
OPRD1-PK and OPRM1; FIG. 12C
  HILLSLOPE: 1.571
OPRD1-PK and OPRM1; cells expressing OPRD1-PK and OPRM1
  transactivation response: lack of response
OPRD1-PK and OPRM1; curve fit, signal, FIG. 12C
  BOTTOM: 20.31
  TOP: 201.4
OPRD1-PK and OPRM1; signal to background, FIG. 12C
  S:B: [S:B = 31.9]
OPRD1-PK; FIG. 12A
  HILLSLOPE: 1.293
OPRD1-PK; cells expressing only OPRD1-PK
  response: absence of response
OPRD1-PK; curve fit, signal, FIG. 12A
  BOTTOM: 519.8
  TOP: 2809

## C[N+](C)(C)CCOC(N)=O [carbachol]
CCKAR-PK [1]
  effect on calcium concentration: some effect
CCKAR-PK [2]
  effect on the binding of arrestin-EA to CCKAR-PK: substantially no effect

## O=C1CCCN1CC#CCN1CCCC1 [oxotremorine]
CHRM2 [3]; CHRM2, FIG. 4
  response with PK1: no response
CHRM2 [3]; CHRM2 fused to PK1, FIG. 1A
  fold response with PK1: 1.4 fold
CHRM2 [3]; signal to background ratio, CHRM2 fused to PK1, FIG. 1A
  S:B PK1: 1.6
CHRM2 [4]; FIG. 4
  EC50: 6.29 µM
  HILLSLOPE: 1.183
  response with PK2: robust response
CHRM2 [4]; [6]
  BOTTOM: 335.9
  TOP: 2037
CHRM2 [4]; signal to background ratio, CHRM2 fused to PK2, FIG. 1B
  S:B PK2: 6.1

## CCL3: ligand added to CCR5 cells
OPRM1-PK and CCR2
  transactivation response: no response
OPRM1-PK and CCR5
  transactivation response: no response
